Laboratory results from the supplement of paper PMC10307832.

Tests used:
Test in all cases: relative viability (nuclei count vs DMSO), 5 days (fraction); higher = more cells survive
201T = system: 201T
Summary of the method: (§1)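 Relative viability was taken as the ratio of nuclei in treated wells to nuclei in vehicle wells. Lung cancer cell lines in 1536-well plates received compounds by pin tool one day after seeding, either one drug alone or a fixed anchor-drug dose plus five library-drug doses (not always all listed) in √10 steps. Nuclei were counted on 4× images after 5 days of treatment, and values are medians of duplicate plates.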

BEN = system: BEN
Summary of the method: as §1

EMC-BAC-2 = system: EMC-BAC-2
Summary of the method: as §1

HARA = system: HARA
Summary of the method: as §1

HCC-44 = system: HCC-44
Summary of the method: as §1

LCLC-103H = system: LCLC-103H
Summary of the method: as §1

LOU-NH91 = system: LOU-NH91
Summary of the method: as §1

NCI-H1395 = system: NCI-H1395
Summary of the method: as §1

NCI-H1993 = system: NCI-H1993
Summary of the method: as §1

NCI-H2023 = system: NCI-H2023
Summary of the method: as §1

NCI-H2087 = system: NCI-H2087
Summary of the method: as §1

NCI-H2126 = system: NCI-H2126
Summary of the method: as §1

NCI-H2347 = system: NCI-H2347
Summary of the method: as §1

NCI-H23 = system: NCI-H23
Summary of the method: as §1

NCI-H3122 = system: NCI-H3122
Summary of the method: as §1

NCI-H441 = system: NCI-H441
Summary of the method: as §1

NCI-H522 = system: NCI-H522
Summary of the method: as §1

NCI-H596 = system: NCI-H596
Summary of the method: as §1

NCI-H647 = system: NCI-H647
Summary of the method: as §1

NCI-H650 = system: NCI-H650
Summary of the method: as §1

NCI-H727 = system: NCI-H727
Summary of the method: as §1

NCI-H838 = system: NCI-H838
Summary of the method: as §1

Cc1sc2c(c1C)C(c1ccc(Cl)cc1)=N[C@@H](CC(=O)OC(C)(C)C)c1nnc(C)n1-2 [JQ1] + Cc1cc(Nc2cc(N3CCN(C)CC3)nc(Sc3ccc(NC(=O)C4CC4)cc3)n2)n[nH]1 [Tozasertib] (partner 0.1 µM) was tested. Which relative viability (201T; first compound 0.04 µM) did it give?
Its relative viability is 0.971.

And the relative viability (201T; first compound 0.1265 µM)?
Its relative viability is 0.651.

What about the relative viability (201T; first compound 0.4 µM) of the same compound?
The relative viability was 0.613.

What about the relative viability (201T; first compound 1.265 µM) of the same compound?
The relative viability was 0.566.

And the relative viability (201T; first compound 4 µM)?
Its relative viability is 0.383.

What about the relative viability (BEN; first compound 0.04 µM) of the same compound?
The relative viability was 0.57.

And the relative viability (BEN; first compound 0.1265 µM)?
Its relative viability is 0.535.

And the relative viability (BEN; first compound 0.4 µM)?
The relative viability was 0.5.

And the relative viability (BEN; first compound 1.265 µM)?
Its relative viability is 0.365.

What about the relative viability (BEN; first compound 4 µM) of the same compound?
Its relative viability is 0.28.

What about the relative viability (EMC-BAC-2; first compound 0.04 µM) of the same compound?
Its relative viability is 0.248.

What about the relative viability (EMC-BAC-2; first compound 0.1265 µM) of the same compound?
The relative viability was 0.235.

And the relative viability (EMC-BAC-2; first compound 0.4 µM)?
Its relative viability is 0.221.

What about the relative viability (EMC-BAC-2; first compound 1.265 µM) of the same compound?
The relative viability was 0.174.

What about the relative viability (EMC-BAC-2; first compound 4 µM) of the same compound?
The relative viability was 0.174.

And the relative viability (HARA; first compound 0.04 µM)?
The relative viability was 0.112.

And the relative viability (HARA; first compound 0.1265 µM)?
The relative viability was 0.122.

What about the relative viability (HARA; first compound 0.4 µM) of the same compound?
The relative viability was 0.123.

What about the relative viability (HARA; first compound 1.265 µM) of the same compound?
Its relative viability is 0.08.

And the relative viability (HARA; first compound 4 µM)?
Its relative viability is 0.0561.

What about the relative viability (HCC-44; first compound 0.04 µM) of the same compound?
Its relative viability is 0.888.

And the relative viability (HCC-44; first compound 0.1265 µM)?
The relative viability was 0.345.

And the relative viability (HCC-44; first compound 0.4 µM)?
The relative viability was 0.326.

What about the relative viability (HCC-44; first compound 1.265 µM) of the same compound?
Its relative viability is 0.286.

And the relative viability (HCC-44; first compound 4 µM)?
Its relative viability is 0.136.

What about the relative viability (LCLC-103H; first compound 0.04 µM) of the same compound?
The relative viability was 0.429.

What about the relative viability (LCLC-103H; first compound 0.1265 µM) of the same compound?
The relative viability was 0.384.

And the relative viability (LCLC-103H; first compound 0.4 µM)?
The relative viability was 0.288.

And the relative viability (LCLC-103H; first compound 1.265 µM)?
The relative viability was 0.289.

And the relative viability (LCLC-103H; first compound 4 µM)?
The relative viability was 0.171.

What about the relative viability (LOU-NH91; first compound 0.04 µM) of the same compound?
Its relative viability is 0.653.

What about the relative viability (LOU-NH91; first compound 0.1265 µM) of the same compound?
Its relative viability is 0.453.

And the relative viability (LOU-NH91; first compound 0.4 µM)?
Its relative viability is 0.255.

And the relative viability (LOU-NH91; first compound 1.265 µM)?
Its relative viability is 0.359.

What about the relative viability (LOU-NH91; first compound 4 µM) of the same compound?
Its relative viability is 0.299.

And the relative viability (NCI-H1395; first compound 0.04 µM)?
Its relative viability is 0.734.

And the relative viability (NCI-H1395; first compound 0.1265 µM)?
The relative viability was 0.681.

What about the relative viability (NCI-H1395; first compound 0.4 µM) of the same compound?
The relative viability was 0.652.

What about the relative viability (NCI-H1395; first compound 1.265 µM) of the same compound?
Its relative viability is 0.495.

And the relative viability (NCI-H1395; first compound 4 µM)?
The relative viability was 0.419.

What about the relative viability (NCI-H1993; first compound 0.04 µM) of the same compound?
Its relative viability is 0.509.

What about the relative viability (NCI-H1993; first compound 0.1265 µM) of the same compound?
The relative viability was 0.62.

What about the relative viability (NCI-H1993; first compound 0.4 µM) of the same compound?
The relative viability was 0.513.

And the relative viability (NCI-H1993; first compound 1.265 µM)?
Its relative viability is 0.424.

What about the relative viability (NCI-H1993; first compound 4 µM) of the same compound?
The relative viability was 0.489.

And the relative viability (NCI-H2023; first compound 0.04 µM)?
The relative viability was 0.354.

And the relative viability (NCI-H2023; first compound 0.1265 µM)?
Its relative viability is 0.308.

What about the relative viability (NCI-H2023; first compound 0.4 µM) of the same compound?
Its relative viability is 0.186.

And the relative viability (NCI-H2023; first compound 1.265 µM)?
The relative viability was 0.1.

What about the relative viability (NCI-H2023; first compound 4 µM) of the same compound?
Its relative viability is 0.0918.

And the relative viability (NCI-H2087; first compound 0.04 µM)?
Its relative viability is 0.253.

And the relative viability (NCI-H2087; first compound 0.1265 µM)?
The relative viability was 0.212.

And the relative viability (NCI-H2087; first compound 0.4 µM)?
Its relative viability is 0.205.

And the relative viability (NCI-H2087; first compound 1.265 µM)?
The relative viability was 0.128.

What about the relative viability (NCI-H2087; first compound 4 µM) of the same compound?
Its relative viability is 0.144.

What about the relative viability (NCI-H2126; first compound 0.04 µM) of the same compound?
Its relative viability is 0.8.

What about the relative viability (NCI-H2126; first compound 0.1265 µM) of the same compound?
The relative viability was 0.849.

And the relative viability (NCI-H2126; first compound 0.4 µM)?
The relative viability was 0.607.

And the relative viability (NCI-H2126; first compound 1.265 µM)?
Its relative viability is 0.419.

What about the relative viability (NCI-H2126; first compound 4 µM) of the same compound?
Its relative viability is 0.31.

And the relative viability (NCI-H2347; first compound 0.04 µM)?
Its relative viability is 0.539.

What about the relative viability (NCI-H2347; first compound 0.1265 µM) of the same compound?
The relative viability was 0.554.

What about the relative viability (NCI-H2347; first compound 0.4 µM) of the same compound?
The relative viability was 0.489.

What about the relative viability (NCI-H2347; first compound 1.265 µM) of the same compound?
Its relative viability is 0.308.

What about the relative viability (NCI-H2347; first compound 4 µM) of the same compound?
Its relative viability is 0.237.

And the relative viability (NCI-H23; first compound 0.04 µM)?
Its relative viability is 0.263.

What about the relative viability (NCI-H23; first compound 0.1265 µM) of the same compound?
Its relative viability is 0.253.

What about the relative viability (NCI-H23; first compound 0.4 µM) of the same compound?
Its relative viability is 0.279.

What about the relative viability (NCI-H23; first compound 1.265 µM) of the same compound?
The relative viability was 0.147.

What about the relative viability (NCI-H23; first compound 4 µM) of the same compound?
The relative viability was 0.138.

And the relative viability (NCI-H3122; first compound 0.04 µM)?
Its relative viability is 0.353.

What about the relative viability (NCI-H3122; first compound 0.4 µM) of the same compound?
The relative viability was 0.189.

What about the relative viability (NCI-H3122; first compound 1.265 µM) of the same compound?
Its relative viability is 0.0696.

What about the relative viability (NCI-H3122; first compound 4 µM) of the same compound?
The relative viability was 0.0737.

What about the relative viability (NCI-H441; first compound 0.04 µM) of the same compound?
Its relative viability is 0.629.

What about the relative viability (NCI-H441; first compound 0.1265 µM) of the same compound?
Its relative viability is 0.66.

What about the relative viability (NCI-H441; first compound 0.4 µM) of the same compound?
The relative viability was 0.631.

What about the relative viability (NCI-H441; first compound 1.265 µM) of the same compound?
The relative viability was 0.417.

And the relative viability (NCI-H441; first compound 4 µM)?
The relative viability was 0.219.

And the relative viability (NCI-H522; first compound 0.04 µM)?
Its relative viability is 0.598.

And the relative viability (NCI-H522; first compound 0.1265 µM)?
The relative viability was 0.503.

What about the relative viability (NCI-H522; first compound 0.4 µM) of the same compound?
Its relative viability is 0.454.

What about the relative viability (NCI-H522; first compound 1.265 µM) of the same compound?
The relative viability was 0.434.

What about the relative viability (NCI-H522; first compound 4 µM) of the same compound?
The relative viability was 0.339.

What about the relative viability (NCI-H596; first compound 0.04 µM) of the same compound?
Its relative viability is 0.822.

And the relative viability (NCI-H596; first compound 0.1265 µM)?
Its relative viability is 0.643.

And the relative viability (NCI-H596; first compound 0.4 µM)?
The relative viability was 0.72.

What about the relative viability (NCI-H596; first compound 1.265 µM) of the same compound?
The relative viability was 0.237.

And the relative viability (NCI-H596; first compound 4 µM)?
The relative viability was 0.225.

And the relative viability (NCI-H647; first compound 0.04 µM)?
Its relative viability is 0.353.

What about the relative viability (NCI-H647; first compound 0.1265 µM) of the same compound?
Its relative viability is 0.203.

And the relative viability (NCI-H647; first compound 0.4 µM)?
Its relative viability is 0.202.

And the relative viability (NCI-H647; first compound 1.265 µM)?
The relative viability was 0.0994.

And the relative viability (NCI-H647; first compound 4 µM)?
The relative viability was 0.0445.

What about the relative viability (NCI-H650; first compound 0.04 µM) of the same compound?
Its relative viability is 0.657.

And the relative viability (NCI-H650; first compound 0.1265 µM)?
Its relative viability is 0.541.

What about the relative viability (NCI-H650; first compound 0.4 µM) of the same compound?
The relative viability was 0.368.

What about the relative viability (NCI-H650; first compound 1.265 µM) of the same compound?
The relative viability was 0.21.

What about the relative viability (NCI-H650; first compound 4 µM) of the same compound?
The relative viability was 0.177.

What about the relative viability (NCI-H727; first compound 0.04 µM) of the same compound?
Its relative viability is 0.714.

What about the relative viability (NCI-H727; first compound 0.1265 µM) of the same compound?
The relative viability was 0.516.

And the relative viability (NCI-H727; first compound 0.4 µM)?
The relative viability was 0.459.

And the relative viability (NCI-H727; first compound 1.265 µM)?
The relative viability was 0.397.

What about the relative viability (NCI-H727; first compound 4 µM) of the same compound?
The relative viability was 0.387.

And the relative viability (NCI-H838; first compound 0.04 µM)?
Its relative viability is 0.26.

What about the relative viability (NCI-H838; first compound 0.1265 µM) of the same compound?
The relative viability was 0.221.

What about the relative viability (NCI-H838; first compound 0.4 µM) of the same compound?
The relative viability was 0.263.

What about the relative viability (NCI-H838; first compound 1.265 µM) of the same compound?
The relative viability was 0.179.

And the relative viability (NCI-H838; first compound 4 µM)?
Its relative viability is 0.134.
